Source: paper PMC10630888, “Nuclear ERK1/2 signaling potentiation enhances neuroprotection and cognition via Importinα1/KPNA2” (EMBO Molecular Medicine, 2023)
Where “and” joins values, the source holds several entries; their conditions need not be identical. Identical values can stand only once.

Experiments:
p-ERK in dorsal striatum = assay: In vivo dose response of striatal pERK; set-up: species or system mouse; settings: 1 h after administration, individual mice
Method: For the dose response study, 2‐month‐old CD1 male mice were injected with different doses of RB5 (1, 2.5, 5, 10, and 20 mg/kg, i.p.), whereas the control group was injected with 20 mg/kg (i.p.) of SCR peptide. Mice were perfused 1 h later with 4% PFA. For the time course study, mice were injected i.p. with 20 mg/kg of RB5 and perfused at different time points with 4% PFA (1, 3, 6, and 12 h). The control group was injected i.p. with 20 mg/kg of SCR. Brains were postfixed in 4% PFA for 24 h and cryoprotected overnight in sucrose 30% before immunohistochemistry against phospho‐ERK1/2.
Immunohistochemistry was performed as described in Papale et al ([2016]). […]
For in vivo immunohistochemistry experiments, images were acquired from the dorsal striatum using a Leica DM IRB microscope under a 20× objective. The number of p‐ERK, p‐MSK‐1, p‐ELK, p‐MEK‐1, p‐VG K+, c‐Fos, and DARPP‐32 positive cells was counted in 2–3 consecutive sections per mouse, bilaterally and averaged across the sections using the ImageJ software by a blind investigator to the condition. Estimation of nigral cell loss was assessed by quantifying the number of TH‐immunopositive neurons of the SNc in 360 μm‐spaced sections for each animal.

cleaved caspase-3 [1] = assay: Cleaved caspase-3 in SN, MPTP model; type: in vivo, mouse
Text: (§1) In ex‐vivo and in‐vivo immunofluorescence experiments, the number of p‐S6 or p‐AcH3 immunoreactive neurons among NeuN‐positive neurons was counted in 2–3 consecutive striatal sections per mouse in four fields per section. Caspase 3‐positive cells were quantified among NeuN‐positive neurons in each slide and expressed as percentage (ratio between caspase‐3‐positive cells and total NeuN‐positive neurons) for each field acquired through the slide. The number of cells showing mutant Huntingtin inclusions were expressed as a percentage of mutant Huntingtin‐positive cells among DAPI‐positive cells.
1‐methyl‐4‐phenyl‐1,2,3,6‐tetrahydropyridine‐hydrochloride (MPTP‐HCl, Sigma, Italy) was dissolved in saline and administered i.p. once daily at a dose of 20 mg/kg for 4 days. RB5 (20 mg/kg i.p.) was injected daily 30 min before MPTP.

NOR memory = assay: Novel object recognition test (NOR); type: in vivo, mouse; settings: mice, single systemic administration, 20 mg/kg i.p.
Method: NOR was performed as previously described (d'Isa et al, [2014]). Briefly, the test was performed in an open square box placed in a quiet room with dim light. The objects used were parallelepipeds in metal and glass vials filled with water. The protocol required 3 days and it was performed as follows.
Day 1: mice were individually placed in the empty arena for 5 min to familiarize with it and to measure their anxiety (thigmotaxis trial). The percentage of thigmotaxis is calculated as the time spent in the peripheral zone out of the total time spent in the arena (300 s.). Animals showing a thigmotaxis > 90% are discarded from the sample because considered biased for anxiety. Day 2: mice were placed into the arena for 10 min, where they were allowed to explore two identical objects (training trial). The amount of time spent by mice exploring each object was scored. […] Times of exploration for the familiar object and for the novel object were recorded. The discrimination index (D.I.), defined as the difference between the exploration time for the novel object and the one for the familiar object, divided by total exploration time, was calculated. The sessions were recorded with the video tracking software SMART (Panlab, Barcelona, Spain). […]

cleaved caspase-3 [2] = assay: Cleaved caspase-3 in striatum of zQ175 females after RB5; type: in vivo, mouse; settings: RB5 for 9 days
Method: Immunofluorescence was performed as described in Papale et al ([2016]). Briefly, 1 h after blocking in 5% normal goat serum, slices were incubated overnight at 4°C with the following primary antibodies: anti‐phospho (Ser10)‐acetylated (Lys14) histone H3 (1:1,000, Millipore), anti‐phospho‐S6 ribosomal protein (Ser235/236) (1:200, Cell Signaling Technology) anti‐phospho‐S6 ribosomal protein (Ser240/244) (1:200, Cell Signaling), cleaved caspase‐3 (1:200, Cell Signaling Technology), anti‐mutant Huntingtin (1:100, Developmental Studies Hybridoma Bank, University of Iowa, #MW8), and NeuN (1:1,000, Millipore). […]
as §1, with “cells. […]” for “cells.”

In the case of “GRKKRRQRRRPPQGGGGGEPRRTEGVGPGVPGEVEMVKGQPFDV [RB5, six D-amino acids, acetylated N-terminus]”, the “p-ERK-positive cells in dorsal striatum” value (p-ERK in dorsal striatum; 10 mg/kg i.p.) is reported as “significant striatal ERK activation”, the “p-ERK-positive cells in dorsal striatum” value (p-ERK in dorsal striatum; 20 mg/kg i.p.) is reported as “significant striatal ERK activation” and the “Apoptotic cell death (cleaved caspase-3-positive cells)” value (cleaved caspase-3 [1]; MPTP 20 mg/kg i.p. and RB5 20 mg/kg i.p. for 4 days) is reported as “counteracted apoptotic cell death”. For the same sequence, the “cleaved caspase-3 in SN (Fig 5 panel h)” value (cleaved caspase-3 [1]; MPTP model, individual animals) was 15.9941 and 14.3542 and 22.1236 and 12.1639 and 12.097 and 11.2152 and 20.664 and 29.614 and 13.0618 and 19.582 and 19.4193 and 16.215 and 16.8899 and 24.4755, the “Persistence of NOR memory” value (NOR memory) was “over 120 h” and the “Preapoptotic marker caspase-3 in striatum” value (cleaved caspase-3 [2]) was “very significant reduction”.
